Experimental data: the NIST ThermoML archive (doi:10.1016/j.fluid.2012.12.001)
Numbers after ± are expanded uncertainties.

Experiment: an = ratio of the nth substance listed
Details: for viscosity / mass density: 101 kPa, Liquid; for viscosity: Capillary tube (Ostwald / Ubbelohde) method; for mass density: Vibrating tube method; for surface tension liquid-gas: Capillary rise

CC(O)C(=O)O (centres undefined) [2-hydroxypropanoic acid] + C[N+](C)(C)CCO.[Cl-]
Details	mass density [kg/m3]	surface tension liquid-gas [mN/m]	viscosity [mPa·s]
298.15 K, a1 = 1.3	1166.3 ± 0.2	–	722.55 ± 43
298.15 K, a1 = 1.5	1174.9 ± 0.2	–	615.62 ± 35
298.15 K, a1 = 2	1179.3 ± 0.2	–	536.28 ± 29
298.15 K, a1 = 2.5	1184.7 ± 0.2	–	494.73 ± 25
298.15 K, a1 = 3	1189.3 ± 0.2	–	437.53 ± 22
298.15 K, a1 = 3.5	1193.2 ± 0.2	–	418.14 ± 20
298.15 K, a1 = 5	1200.6 ± 0.2	–	378.56 ± 18
298.15 K, a1 = 8	1208 ± 0.2	–	341.27 ± 15
298.15 K, a1 = 10	1211.3 ± 0.2	–	321.5 ± 14
298.15 K, a1 = 15	1173.2 ± 0.4	–	226.94 ± 8
298.2 K, a1 = 2	–	48 ± 1	–
303.15 K, a1 = 1.3	1163.1 ± 0.2	–	508.17 ± 27
303.15 K, a1 = 1.5	1171.4 ± 0.2	–	428.98 ± 21
303.15 K, a1 = 2	1175.8 ± 0.2	–	370.38 ± 17
303.15 K, a1 = 2.5	1181.1 ± 0.2	–	341.17 ± 15
303.15 K, a1 = 3	1185.6 ± 0.2	–	300.21 ± 13
303.15 K, a1 = 3.5	1189.4 ± 0.2	–	285.25 ± 12
303.15 K, a1 = 5	1196.7 ± 0.2	–	254.91 ± 10
303.15 K, a1 = 8	1204 ± 0.2	–	226.58 ± 8.4
303.15 K, a1 = 10	1207.1 ± 0.2	–	213.35 ± 7.6
303.15 K, a1 = 15	1207.1 ± 0.3	–	163.42 ± 4.6
303.3 K, a1 = 2	–	47.6 ± 0.2	–
308.15 K, a1 = 1.3	1160 ± 0.2	–	364.59 ± 17
308.15 K, a1 = 1.5	1168.2 ± 0.2	–	304.96 ± 13
308.15 K, a1 = 2	1172.5 ± 0.2	–	263.28 ± 10
308.15 K, a1 = 2.5	1177.7 ± 0.2	–	241.21 ± 9
308.15 K, a1 = 3	1182.1 ± 0.2	–	211.64 ± 7.3
308.15 K, a1 = 3.5	1185.9 ± 0.2	–	200.01 ± 6.7
308.15 K, a1 = 5	1193 ± 0.2	–	176.99 ± 5.6
308.15 K, a1 = 8	1200.1 ± 0.2	–	155.91 ± 4.5
308.15 K, a1 = 10	1203 ± 0.2	–	146.37 ± 4.1
308.15 K, a1 = 15	1203 ± 0.2	–	146.37 ± 3.7
308.3 K, a1 = 2	–	47.3 ± 0.2	–
313.15 K, a1 = 1.3	1157 ± 0.2	–	267.49 ± 10
313.15 K, a1 = 1.5	1165 ± 0.2	–	222.55 ± 7.8
313.15 K, a1 = 2	1169.3 ± 0.2	–	191.68 ± 6.2
313.15 K, a1 = 2.5	1174.4 ± 0.2	–	174.9 ± 5.3
313.15 K, a1 = 3	1178.6 ± 0.2	–	153.04 ± 4.3
313.15 K, a1 = 3.5	1182.3 ± 0.2	–	144.01 ± 3.9
313.15 K, a1 = 5	1189.3 ± 0.2	–	126.42 ± 3.1
313.15 K, a1 = 8	1196.2 ± 0.2	–	110.53 ± 2.5
313.15 K, a1 = 10	1199 ± 0.2	–	103.52 ± 2.2
313.15 K, a1 = 15	1199 ± 0.2	–	103.52 ± 2.2
313.5 K, a1 = 2	–	47 ± 1	–
318.15 K, a1 = 1.3	1154 ± 0.2	–	200.31 ± 6.5
318.15 K, a1 = 1.5	1161.9 ± 0.2	–	165.87 ± 4.8
318.15 K, a1 = 2	1166.2 ± 0.2	–	142.7 ± 3.7
318.15 K, a1 = 2.5	1171.1 ± 0.2	–	129.75 ± 3.1
318.15 K, a1 = 3	1175.2 ± 0.2	–	113.34 ± 2.5
318.15 K, a1 = 3.5	1178.8 ± 0.2	–	106.26 ± 2.2
318.15 K, a1 = 5	1185.6 ± 0.2	–	92.66 ± 1.7
318.15 K, a1 = 8	1192.3 ± 0.2	–	80.53 ± 1.3
318.15 K, a1 = 10	1195 ± 0.2	–	75.26 ± 1.2
318.15 K, a1 = 15	1195 ± 0.2	–	75.26 ± 1.2
319.2 K, a1 = 2	–	46.7 ± 0.2	–
323.15 K, a1 = 1.3	1151.1 ± 0.2	–	152.8 ± 4.1
323.15 K, a1 = 1.5	1158.9 ± 0.2	–	126.22 ± 2.9
323.15 K, a1 = 2	1163 ± 0.2	–	108.45 ± 2.2
323.15 K, a1 = 2.5	1167.9 ± 0.2	–	98.3 ± 1.8
323.15 K, a1 = 3	1171.8 ± 0.2	–	85.77 ± 1.4
323.15 K, a1 = 3.5	1175.3 ± 0.2	–	80.16 ± 1.2
323.15 K, a1 = 5	1181.9 ± 0.2	–	69.53 ± 0.96
323.15 K, a1 = 8	1188.4 ± 0.2	–	60.12 ± 0.75
323.15 K, a1 = 10	1191 ± 0.2	–	56.1 ± 0.68
323.15 K, a1 = 15	1191 ± 0.2	–	56.1 ± 0.68
323.5 K, a1 = 2	–	46.5 ± 0.2	–
328.15 K, a1 = 1.3	1148.2 ± 0.2	–	118.6 ± 2.6
328.15 K, a1 = 1.5	1155.8 ± 0.2	–	97.77 ± 1.8
328.15 K, a1 = 2	1159.9 ± 0.2	–	83.99 ± 1.3
328.15 K, a1 = 2.5	1164.6 ± 0.2	–	75.93 ± 1.1
328.15 K, a1 = 3	1168.4 ± 0.2	–	66.19 ± 0.81
328.15 K, a1 = 3.5	1171.8 ± 0.2	–	61.71 ± 0.72
328.15 K, a1 = 5	1178.3 ± 0.2	–	53.28 ± 0.58
328.15 K, a1 = 8	1184.5 ± 0.2	–	45.88 ± 0.56
328.15 K, a1 = 10	1186.9 ± 0.2	–	42.76 ± 0.52
328.15 K, a1 = 15	1186.9 ± 0.2	–	42.76 ± 0.52
328.6 K, a1 = 2	–	46.2 ± 0.2	–
333.15 K, a1 = 1.3	1145.3 ± 0.2	–	93.55 ± 1.6
333.15 K, a1 = 1.5	1152.7 ± 0.2	–	76.99 ± 1.1
333.15 K, a1 = 2	1156.7 ± 0.2	–	66.16 ± 0.76
333.15 K, a1 = 2.5	1161.3 ± 0.2	–	59.67 ± 0.63
333.15 K, a1 = 3	1165 ± 0.2	–	52 ± 0.51
333.15 K, a1 = 3.5	1168.3 ± 0.2	–	48.38 ± 0.54
333.15 K, a1 = 5	1174.6 ± 0.2	–	41.63 ± 0.47
333.15 K, a1 = 8	1180.5 ± 0.2	–	35.72 ± 0.41
333.15 K, a1 = 10	1182.9 ± 0.2	–	33.26 ± 0.38
333.15 K, a1 = 15	1182.9 ± 0.2	–	33.26 ± 0.38
333.2 K, a1 = 2	–	46 ± 1	–
338.1 K, a1 = 2	–	45.7 ± 0.2	–
338.15 K, a1 = 1.3	1142.4 ± 0.2	–	74.84 ± 0.96
338.15 K, a1 = 1.5	1149.7 ± 0.2	–	61.57 ± 0.63
338.15 K, a1 = 2	1153.6 ± 0.2	–	53.08 ± 0.49
338.15 K, a1 = 2.5	1158 ± 0.2	–	47.66 ± 0.5
338.15 K, a1 = 3	1161.6 ± 0.2	–	41.53 ± 0.44
338.15 K, a1 = 3.5	1164.8 ± 0.2	–	38.58 ± 0.41
338.15 K, a1 = 5	1170.9 ± 0.2	–	33.1 ± 0.36
338.15 K, a1 = 8	1176.6 ± 0.2	–	28.33 ± 0.31
338.15 K, a1 = 10	1178.8 ± 0.2	–	26.35 ± 0.29
338.15 K, a1 = 15	1178.8 ± 0.2	–	26.35 ± 0.29
343.15 K, a1 = 1.3	1139.6 ± 0.2	–	60.71 ± 0.59
343.15 K, a1 = 1.5	1146.7 ± 0.2	–	49.92 ± 0.5
343.15 K, a1 = 2	1150.5 ± 0.2	–	43.05 ± 0.43
343.15 K, a1 = 2.5	1154.8 ± 0.2	–	38.64 ± 0.39
343.15 K, a1 = 3	1158.2 ± 0.2	–	33.66 ± 0.34
343.15 K, a1 = 3.5	1161.3 ± 0.2	–	31.24 ± 0.32
343.15 K, a1 = 5	1167.2 ± 0.2	–	26.74 ± 0.27
343.15 K, a1 = 8	1172.7 ± 0.2	–	22.83 ± 0.24
343.15 K, a1 = 10	1174.7 ± 0.2	–	21.23 ± 0.22
343.15 K, a1 = 15	1174.7 ± 0.2	–	21.23 ± 0.22
348.15 K, a1 = 1.3	1136.7 ± 0.2	–	49.84 ± 0.48
348.15 K, a1 = 1.5	1143.7 ± 0.2	–	41.01 ± 0.4
348.15 K, a1 = 2	1147.4 ± 0.2	–	35.4 ± 0.34
348.15 K, a1 = 2.5	1151.5 ± 0.2	–	31.75 ± 0.31
348.15 K, a1 = 3	1154.9 ± 0.2	–	27.66 ± 0.27
348.15 K, a1 = 3.5	1157.8 ± 0.2	–	25.64 ± 0.25
348.15 K, a1 = 5	1163.5 ± 0.2	–	21.91 ± 0.22
348.15 K, a1 = 8	1168.8 ± 0.2	–	18.68 ± 0.19
348.15 K, a1 = 10	1170.7 ± 0.2	–	17.36 ± 0.17
348.15 K, a1 = 15	1170.7 ± 0.2	–	17.36 ± 0.17
353.15 K, a1 = 1.3	1133.9 ± 0.2	–	41.4 ± 0.39
353.15 K, a1 = 1.5	1140.7 ± 0.2	–	34.08 ± 0.32
353.15 K, a1 = 2	1144.3 ± 0.2	–	29.46 ± 0.27
353.15 K, a1 = 2.5	1148.3 ± 0.2	–	26.41 ± 0.25
353.15 K, a1 = 3	1151.5 ± 0.2	–	23.01 ± 0.22
353.15 K, a1 = 3.5	1154.2 ± 0.2	–	21.32 ± 0.2
353.15 K, a1 = 5	1159.8 ± 0.2	–	18.2 ± 0.17
353.15 K, a1 = 8	1164.8 ± 0.2	–	15.49 ± 0.15
353.15 K, a1 = 10	1166.7 ± 0.2	–	14.38 ± 0.14
353.15 K, a1 = 15	1166.7 ± 0.2	–	14.38 ± 0.14
358.15 K, a1 = 1.3	1131.1 ± 0.2	–	34.75 ± 0.31
358.15 K, a1 = 1.5	1137.7 ± 0.2	–	28.64 ± 0.26
358.15 K, a1 = 2	1141.2 ± 0.2	–	24.79 ± 0.22
358.15 K, a1 = 2.5	1145.1 ± 0.2	–	22.22 ± 0.2
358.15 K, a1 = 3	1148.1 ± 0.2	–	19.37 ± 0.18
358.15 K, a1 = 3.5	1150.9 ± 0.2	–	17.94 ± 0.16
358.15 K, a1 = 5	1156.1 ± 0.2	–	15.29 ± 0.14
358.15 K, a1 = 8	1160.9 ± 0.2	–	13.01 ± 0.12
358.15 K, a1 = 10	1162.7 ± 0.2	–	12.05 ± 0.11
358.15 K, a1 = 15	1162.7 ± 0.2	–	12.05 ± 0.11
363.15 K, a1 = 1.3	1128.3 ± 0.2	–	29.44 ± 0.27
363.15 K, a1 = 1.5	1134.7 ± 0.2	–	24.31 ± 0.18
363.15 K, a1 = 2	1138.1 ± 0.2	–	21.08 ± 0.18
363.15 K, a1 = 2.5	1141.9 ± 0.2	–	18.89 ± 0.18
363.15 K, a1 = 3	1144.7 ± 0.2	–	16.45 ± 0.14
363.15 K, a1 = 3.5	1147.4 ± 0.2	–	15.29 ± 0.14
363.15 K, a1 = 5	1152.3 ± 0.2	–	12.99 ± 0.11
363.15 K, a1 = 8	1157.1 ± 0.2	–	11.05 ± 0.1
363.15 K, a1 = 10	1158.6 ± 0.2	–	10.23 ± 0.088
363.15 K, a1 = 15	1158.6 ± 0.2	–	10.23 ± 0.098
